Results as given in paper PMC10598672, “A hybrid energy-based and AI-based screening approach for the discovery of novel inhibitors of JAK3” (Frontiers in Medicine, 2023).

Tests used:
JAK3 [1] = molecular target: T1, JAK3 (Homo sapiens, UniProt P52333); assay: HTRF kinase assay, inhibition rate at […]; format: biochemical; conditions: read-out: Inhibit rate (%)
T1 sequence (P52333 1-1124): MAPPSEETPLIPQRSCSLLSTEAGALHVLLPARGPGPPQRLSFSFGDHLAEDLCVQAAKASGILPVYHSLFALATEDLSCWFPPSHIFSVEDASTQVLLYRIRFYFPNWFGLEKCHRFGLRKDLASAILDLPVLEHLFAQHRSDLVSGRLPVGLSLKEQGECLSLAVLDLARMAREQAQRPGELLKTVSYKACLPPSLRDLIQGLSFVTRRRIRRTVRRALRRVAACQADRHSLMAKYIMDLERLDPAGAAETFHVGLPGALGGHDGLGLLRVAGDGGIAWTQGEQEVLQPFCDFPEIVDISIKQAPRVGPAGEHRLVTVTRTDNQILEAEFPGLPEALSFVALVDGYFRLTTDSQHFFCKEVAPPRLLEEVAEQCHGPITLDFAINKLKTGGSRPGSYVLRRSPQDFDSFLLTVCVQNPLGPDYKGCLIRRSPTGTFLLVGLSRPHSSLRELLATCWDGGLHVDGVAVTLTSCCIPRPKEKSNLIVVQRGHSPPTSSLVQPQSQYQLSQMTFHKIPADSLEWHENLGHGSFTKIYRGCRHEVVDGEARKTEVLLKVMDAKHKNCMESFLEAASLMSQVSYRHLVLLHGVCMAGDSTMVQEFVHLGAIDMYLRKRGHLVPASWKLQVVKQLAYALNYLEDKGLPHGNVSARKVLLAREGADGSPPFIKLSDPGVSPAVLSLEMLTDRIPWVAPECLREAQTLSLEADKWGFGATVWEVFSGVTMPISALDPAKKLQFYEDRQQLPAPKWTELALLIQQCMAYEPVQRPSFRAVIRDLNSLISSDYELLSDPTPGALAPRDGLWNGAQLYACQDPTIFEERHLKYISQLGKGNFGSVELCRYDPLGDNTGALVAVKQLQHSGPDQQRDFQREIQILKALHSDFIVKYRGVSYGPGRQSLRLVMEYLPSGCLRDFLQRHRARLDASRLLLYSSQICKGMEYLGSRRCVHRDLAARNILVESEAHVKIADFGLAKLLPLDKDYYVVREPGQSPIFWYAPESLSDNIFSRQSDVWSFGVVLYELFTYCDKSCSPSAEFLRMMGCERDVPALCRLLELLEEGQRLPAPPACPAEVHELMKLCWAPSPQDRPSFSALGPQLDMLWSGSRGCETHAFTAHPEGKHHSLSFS

JAK3 [2] = molecular target: T1, JAK3; assay: HTRF kinase assay (Cryptate/XL665), dose-response IC50; format: biochemical

SMILES	inhibition at 25 µM (JAK3 [1]) [%]	IC50 (JAK3 [2]) [µM]
CN1CCC(Nc2nc(Nc3ccc(Oc4ccccc4)cc3)c3c(=O)[nH]cc(Br)c3n2)CC1 [compound 4]	93.37 ± 0.01	–
CN1CCN(c2ccc(Nc3ncc4cc(C#N)c(=O)n(C5CCCC5)c4n3)cc2)CC1 [compound 5]	75.2 ± 0.85	–
CC(=O)Nc1cc(Oc2ccc3c(C(=O)Nc4ccc(CN5CCN(C)CC5)c(C(F)(F)F)c4)cccc3c2)ncn1 [compound 8]	–	4.11
